# Measurements taken from patent US9573987B2 (priority 2011, dated 2017).
# Where “and” joins values, the source holds several entries; their conditions need not be identical. Equal values may be shown once. *1 amine or outer side, *2 acyl side, *3 side chain or, on linkers, in order; H or OH if unused. Where a SMILES comes first, the peptide text is derived from it. Side-chain parts run from the residue outwards. [ ]: non-standard residue; d: D form. The star is where a group is joined. Phe(4-NH2) = Nc1ccc(C[C@H](N)C(=O)O)cc1; d(εLys) = N[C@H](CCCCN[*:1])C(=O)[*:2]; εLys = N[C@@H](CCCCN[*:1])C(=O)[*:2]; Isobutyryl(2-OH) = CC(C)(O)C(=O)*; NMeA = CN[C@@H](C)C(=O)O; Sar = CNCC(=O)O
# B1: DP20 2CTP: two end to end linked CTP peptides as the linking peptide (SEQ ID NO: 75) (protein, listed as Homo sapiens)
# chain: GEEEEEKGPEHLCGAHLVDALYLVCGDRGFYSSSSRAPPPSLPSPSRLPGPSDTPILPQKSSSSRAPPPSLPSPSRLPGPSDTPILPQKGIVDECCHRSCDLRRLENYCN
# B2: DP20 C^0CTP: native proinsulin C peptide linked to a CTP peptide as linking peptide (SEQ ID NO: 74) (protein, listed as Homo sapiens)
# chain: GEEEEEKGPEHLCGAHLVDALYLVCGDRGFYRREAEDLQVGQVELGGGPGAGSLQPLALEGSLQRKSSSSRAPPPSLPSPSRLPGPSDTPILPQKGIVDECCHRSCDLRRLENYCN
# B3: DP20 CTPC^0: CTP peptide linked to native proinsulin C peptide as linking peptide (SEQ ID NO: 73) (protein, listed as Homo sapiens)
# chain: GEEEEEKGPEHLCGAHLVDALYLVCGDRGFYSSSSRAPPPSLPSPSRLPGPSDTPILPQKRREAEDLQVGQVELGGGPGAGSLQPLALEGSLQRKGIVDECCHRSCDLRRLENYCN
# Key:
# [1] = Dipeptide half life on IGF1 (p-NH2-F)A19 analogs in PBS; assay type: physicochemical; settings: buffer
# Experimental: Accordingly, the IGF1A chain alone was determined to be a good model for the study of pro-drug half life on IGF1 B:A (Y^B16L^B17) analog peptides. […] For simplicity, prodrug half lives were determined using only the IGF1 A chain in the absence of the B chain. The half lives of each propeptide was determined as described in Example 5.
# [2] = molecular target: T1, IGF-1 receptor (Homo sapiens, UniProt P08069); experiment: IGF-1 receptor phosphorylation assay, receptor transfected HEK293 cells; assay type: cell-based; parameters: expressed in transfected cells; host or cells: HEK293; settings: Table 10
# T1 sequence (P08069 31-736 limits assumed): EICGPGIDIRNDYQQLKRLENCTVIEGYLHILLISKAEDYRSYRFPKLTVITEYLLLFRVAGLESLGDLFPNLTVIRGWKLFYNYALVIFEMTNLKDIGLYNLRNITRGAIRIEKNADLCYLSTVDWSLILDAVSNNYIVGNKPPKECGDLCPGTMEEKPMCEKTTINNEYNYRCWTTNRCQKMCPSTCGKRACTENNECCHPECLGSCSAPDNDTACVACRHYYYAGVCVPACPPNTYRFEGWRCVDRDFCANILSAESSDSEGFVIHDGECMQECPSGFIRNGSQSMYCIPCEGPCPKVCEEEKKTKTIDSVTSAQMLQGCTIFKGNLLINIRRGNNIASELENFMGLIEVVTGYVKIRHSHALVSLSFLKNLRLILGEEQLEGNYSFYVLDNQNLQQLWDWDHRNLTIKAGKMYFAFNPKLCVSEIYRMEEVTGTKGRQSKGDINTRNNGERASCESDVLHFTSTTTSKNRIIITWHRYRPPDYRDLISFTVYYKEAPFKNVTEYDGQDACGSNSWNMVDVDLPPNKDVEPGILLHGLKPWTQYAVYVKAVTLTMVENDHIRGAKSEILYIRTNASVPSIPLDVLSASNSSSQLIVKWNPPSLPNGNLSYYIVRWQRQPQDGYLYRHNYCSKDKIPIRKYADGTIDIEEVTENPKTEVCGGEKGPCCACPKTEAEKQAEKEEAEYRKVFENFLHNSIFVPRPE
# T1 sequence (P08069 741-1367 partner limits assumed): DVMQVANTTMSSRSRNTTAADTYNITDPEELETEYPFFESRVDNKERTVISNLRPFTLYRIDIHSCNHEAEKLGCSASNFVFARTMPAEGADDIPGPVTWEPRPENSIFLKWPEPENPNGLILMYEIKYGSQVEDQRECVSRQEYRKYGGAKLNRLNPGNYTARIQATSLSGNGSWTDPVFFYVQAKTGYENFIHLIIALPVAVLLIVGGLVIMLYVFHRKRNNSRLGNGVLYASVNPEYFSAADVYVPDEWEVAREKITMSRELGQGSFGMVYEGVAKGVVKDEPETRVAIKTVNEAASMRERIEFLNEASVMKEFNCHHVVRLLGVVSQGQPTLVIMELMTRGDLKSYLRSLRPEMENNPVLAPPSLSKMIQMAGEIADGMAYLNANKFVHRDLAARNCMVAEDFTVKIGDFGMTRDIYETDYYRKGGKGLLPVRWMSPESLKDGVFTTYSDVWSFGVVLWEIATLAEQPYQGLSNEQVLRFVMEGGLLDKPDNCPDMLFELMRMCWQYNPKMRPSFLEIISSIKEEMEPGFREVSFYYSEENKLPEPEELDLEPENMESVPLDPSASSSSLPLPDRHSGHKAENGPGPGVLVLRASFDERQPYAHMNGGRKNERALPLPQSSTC
# Experimental: (§1) Color development was stopped 5 min later by adding 0.05 ml 1 N HCl. Absorbance at 450 nm was measured on Titertek Multiscan MCC340 (ThermoFisher, Pittsburgh, Pa.).
# [3] = molecular target: T1, IGF-1 receptor; experiment: IGF-1 receptor binding assay (competition, scintillation proximity); parameters: expressed in transfected cells; plasma membrane fragments; settings: Table 9
# [4] = molecular target: T2, insulin receptor (Homo sapiens, UniProt P06213); experiment: Insulin receptor binding assay (competition, scintillation proximity); parameters: expressed in transfected cells; plasma membrane fragments; settings: for Ratio: IGF-1 receptor IC50 over insulin receptor IC50
# [5] = molecular target: T2, insulin receptor; experiment: Insulin receptor phosphorylation assay, receptor transfected HEK293 cells; assay type: cell-based; parameters: expressed in transfected cells; host or cells: HEK293; settings: for in vitro phosphorylation activity at the insulin receptor (result in words): FIGS. 22A, 22B
# Experimental: as §1
Molecule,half-life ([1]; Half Life (hr)) [h],half-life ([1]; Half Life (hr) PBS) [h],in vitro phosphorylation activity at the insulin receptor (result in words) [5],further results
CC[C@H](C)[C@H](NC(=O)CN)C(=O)N[C@H](C(=O)N[C@@H](CC(=O)O)C(=O)N[C@@H](CCC(=O)O)C(=O)N[C@@H](C)C(=O)N[C@@H](C)C(=O)N[C@@H](Cc1ccccc1)C(=O)N[C@@H](CCCNC(=N)N)C(=O)N[C@@H](CO)C(=O)N[C@@H](C)C(=O)N[C@@H](CC(=O)O)C(=O)N[C@@H](CC(C)C)C(=O)N[C@@H](CCCNC(=N)N)C(=O)N[C@@H](CCCNC(=N)N)C(=O)N[C@@H](CC(C)C)C(=O)N[C@@H](CCC(=O)O)C(=O)N[C@@H](CCSC)C(=O)N[C@@H](Cc1ccc(NC(=O)[C@@H]2CCCN2C(=O)C(C)(C)O)cc1)C(=O)N[C@@H](C)C(=O)N[C@@H](C)C(N)=O)C(C)C [AiBOH Pro] (H-GIVDEAAFRSADLRRLEM[Phe(4-NH2)]([Pro-Isobutyryl(2-OH)])AA-NH2; N-terminus assumed),165,165,,
CC[C@H](C)[C@H](NC(=O)CN)C(=O)N[C@H](C(=O)N[C@@H](CC(=O)O)C(=O)N[C@@H](CCC(=O)O)C(=O)N[C@@H](C)C(=O)N[C@@H](C)C(=O)N[C@@H](Cc1ccccc1)C(=O)N[C@@H](CCCNC(=N)N)C(=O)N[C@@H](CO)C(=O)N[C@@H](C)C(=O)N[C@@H](CC(=O)O)C(=O)N[C@@H](CC(C)C)C(=O)N[C@@H](CCCNC(=N)N)C(=O)N[C@@H](CCCNC(=N)N)C(=O)N[C@@H](CC(C)C)C(=O)N[C@@H](CCC(=O)O)C(=O)N[C@@H](CCSC)C(=O)N[C@@H](Cc1ccc(NC(=O)CN(C)C(=O)C(C)(C)O)cc1)C(=O)N[C@@H](C)C(=O)N[C@@H](C)C(N)=O)C(C)C [AiBOH Sar] (H-GIVDEAAFRSADLRRLEM[Phe(4-NH2)]([Sar-Isobutyryl(2-OH)])AA-NH2; N-terminus assumed),2.3,2.3,,
CC[C@H](C)[C@H](NC(=O)CN)C(=O)N[C@H](C(=O)N[C@@H](CC(=O)O)C(=O)N[C@@H](CCC(=O)O)C(=O)N[C@H]1CSSC[C@@H]2NC(=O)[C@H](CO)NC(=O)[C@H](CCCNC(=N)N)NC(=O)[C@H](Cc3ccccc3)NC(=O)[C@H](CSSC[C@H](NC(=O)[C@H](CC(C)C)NC(=O)[C@H](Cc3c[nH]cn3)NC(=O)[C@H](CCC(=O)O)NC(=O)[C@@H]3CCCN3C(=O)CN)C(=O)NCC(=O)N[C@@H](C)C(=O)N[C@@H](CC(=O)O)C(=O)N[C@@H](CC(C)C)C(=O)N[C@@H](C(C)C)C(=O)N[C@@H](CC(=O)O)C(=O)N[C@@H](C)C(=O)N[C@@H](CC(C)C)C(=O)N[C@@H](Cc3ccc(O)cc3)C(=O)N[C@@H](CC(C)C)C(=O)N[C@@H](C(C)C)C(=O)N[C@H](C(=O)NCC(=O)N[C@@H](CC(=O)O)C(=O)N[C@@H](CCCNC(=N)N)C(=O)NCC(=O)N[C@@H](Cc3ccccc3)C(=O)N[C@@H](Cc3ccc(O)cc3)C(N)=O)CSSC[C@@H](C(=O)N[C@@H](C)C(N)=O)NC(=O)[C@H](Cc3ccc(O)cc3)NC(=O)[C@H](CCSC)NC(=O)[C@H](CCC(=O)O)NC(=O)[C@H](CC(C)C)NC(=O)[C@H](CCCNC(=N)N)NC(=O)[C@H](CCCNC(=N)N)NC(=O)[C@H](CC(C)C)NC(=O)[C@H](CC(=O)O)NC2=O)NC1=O)C(C)C [IGF-1 A:B (H5D10Y16L17) DPI],,,,IGF-1 Receptor % IGF [2]: 7.1%; EC50 ([2]; total phosphorylation): 12.2 nM; IGF-1 Receptor % IGF-1 (in test) [3]: 11.2%; Ratio [4]: 29.1; Insulin Receptor % insulin (in test) ([4]; Table 9): 479.0%
CC[C@H](C)[C@H](NC(=O)CN)C(=O)N[C@H](C(=O)N[C@@H](CC(=O)O)C(=O)N[C@@H](CCC(=O)O)C(=O)N[C@H]1CSSC[C@@H]2NC(=O)[C@H](CO)NC(=O)[C@H](CCCNC(=N)N)NC(=O)[C@H](Cc3ccccc3)NC(=O)[C@H](CSSC[C@H](NC(=O)[C@H](CC(C)C)NC(=O)[C@@H](NC(=O)[C@H](CCC(=O)O)NC(=O)[C@@H]3CCCN3C(=O)CN)[C@@H](C)O)C(=O)NCC(=O)N[C@@H](C)C(=O)N[C@@H](CCC(=O)O)C(=O)N[C@@H](CC(C)C)C(=O)N[C@@H](C(C)C)C(=O)N[C@@H](CC(=O)O)C(=O)N[C@@H](C)C(=O)N[C@@H](CC(C)C)C(=O)N[C@@H](Cc3ccc(O)cc3)C(=O)N[C@@H](CC(C)C)C(=O)N[C@@H](C(C)C)C(=O)N[C@H](C(=O)NCC(=O)N[C@@H](CC(=O)O)C(=O)N[C@@H](CCCNC(=N)N)C(=O)NCC(=O)N[C@@H](Cc3ccccc3)C(=O)N[C@@H](Cc3ccc(O)cc3)C(=O)N[C@@H](Cc3ccccc3)C(=O)N[C@@H](CC(N)=O)C(=O)N[C@@H](CCCCN)C(=O)N3CCC[C@H]3C(=O)N[C@H](C(=O)N[C@@H](CCC(=O)O)C(=O)N[C@@H](CCC(=O)O)C(=O)O)[C@@H](C)O)CSSC[C@@H](C(=O)N[C@@H](C)C(N)=O)NC(=O)[C@H](Cc3ccc(O)cc3)NC(=O)[C@H](CCSC)NC(=O)[C@H](CCC(=O)O)NC(=O)[C@H](CC(C)C)NC(=O)[C@H](CCCNC(=N)N)NC(=O)[C@H](CCCNC(=N)N)NC(=O)[C@H](CC(C)C)NC(=O)[C@H](CC(=O)O)NC2=O)NC1=O)C(C)C [IGF-1 A:B(E10 Y16L17)-E31E3 2B-COOH],,,,"IGF-1 Receptor % IGF-1 (in test) [3]: 3.0%; EC50 ([5]; Insulin Receptor EC50:, total phosphorylation, Table 10): 7 nM and 8.52 nM; Insulin Receptor % Insulin ([5]; Table 10): 18.1% and 31.7%; Ratio [4]: 14.3; Insulin Receptor % insulin (in test) ([4]; Table 9): 36.5%; Insulin Receptor % native insulin activity (0.6 nM) ([4]; Table 9): 50.0%"
CC[C@H](C)[C@H](NC(=O)CN)C(=O)N[C@H](C(=O)N[C@@H](CC(=O)O)C(=O)N[C@@H](CCC(=O)O)C(=O)N[C@@H](C)C(=O)N[C@@H](C)C(=O)N[C@@H](Cc1ccccc1)C(=O)N[C@@H](CCCNC(=N)N)C(=O)N[C@@H](CO)C(=O)N[C@@H](C)C(=O)N[C@@H](CC(=O)O)C(=O)N[C@@H](CC(C)C)C(=O)N[C@@H](CCCNC(=N)N)C(=O)N[C@@H](CCCNC(=N)N)C(=O)N[C@@H](CC(C)C)C(=O)N[C@@H](CCC(=O)O)C(=O)N[C@@H](CCSC)C(=O)N[C@@H](Cc1ccc(NC(=O)[C@H](C)N(C)C(=O)[C@@H](N)CCCCNC(C)=O)cc1)C(=O)N[C@@H](C)C(=O)N[C@@H](C)C(N)=O)C(C)C [K(acetyl) N-methyl Ala] (H-GIVDEAAFRSADLRRLEM[Phe(4-NH2)]([NMeA-εLys-Ac])AA-NH2; N-terminus assumed),23.6,23.6,,
CC[C@H](C)[C@H](NC(=O)CN)C(=O)N[C@H](C(=O)N[C@@H](CC(=O)O)C(=O)N[C@@H](CCC(=O)O)C(=O)N[C@@H](C)C(=O)N[C@@H](C)C(=O)N[C@@H](Cc1ccccc1)C(=O)N[C@@H](CCCNC(=N)N)C(=O)N[C@@H](CO)C(=O)N[C@@H](C)C(=O)N[C@@H](CC(=O)O)C(=O)N[C@@H](CC(C)C)C(=O)N[C@@H](CCCNC(=N)N)C(=O)N[C@@H](CCCNC(=N)N)C(=O)N[C@@H](CC(C)C)C(=O)N[C@@H](CCC(=O)O)C(=O)N[C@@H](CCSC)C(=O)N[C@@H](Cc1ccc(NC(=O)[C@H](C)N(C)C(=O)[C@H](N)CCCCNC(C)=O)cc1)C(=O)N[C@@H](C)C(=O)N[C@@H](C)C(N)=O)C(C)C [dK(acetyl) N-methyl Ala] (H-GIVDEAAFRSADLRRLEM[Phe(4-NH2)]([NMeA-d(εLys)-Ac])AA-NH2; N-terminus assumed),35.3,35.3,,
CC[C@H](C)[C@H](NC(=O)CN)C(=O)N[C@H](C(=O)N[C@@H](CC(=O)O)C(=O)N[C@@H](CCC(=O)O)C(=O)N[C@@H](C)C(=O)N[C@@H](C)C(=O)N[C@@H](Cc1ccccc1)C(=O)N[C@@H](CCCNC(=N)N)C(=O)N[C@@H](CO)C(=O)N[C@@H](C)C(=O)N[C@@H](CC(=O)O)C(=O)N[C@@H](CC(C)C)C(=O)N[C@@H](CCCNC(=N)N)C(=O)N[C@@H](CCCNC(=N)N)C(=O)N[C@@H](CC(C)C)C(=O)N[C@@H](CCC(=O)O)C(=O)N[C@@H](CCSC)C(=O)N[C@@H](Cc1ccc(NC(=O)CN(C)C(=O)[C@H](N)CCCCNC(C)=O)cc1)C(=O)N[C@@H](C)C(=O)N[C@@H](C)C(N)=O)C(C)C [dK(acetyl) Sar] (H-GIVDEAAFRSADLRRLEM[Phe(4-NH2)]([Sar-d(εLys)-Ac])AA-NH2; N-terminus assumed),16.3,17.2,,
B1,,,appears to be active as an insulin agonist,
B2,,,appear to have activity at the insulin receptor,
B3,,,appears more potent than DP20 C^0CTP,
